Key:
HeLa cells = experiment: Live-cell uptake, confocal microscopy; assay type: cell-based; conditions: 2.5 μM, 1 h incubation, FITC signal, repeated in duplicates
Procedure: With both peptides in hand (5 and 6, Figure 7A), we investigated the binding efficiency using our fluorescence-based competitive assay.[38] […] Encouraged by these in vitro results, we explored the cellular uptake and apoptosis efficacy of the new cyclic peptide in living cells. To investigate the live cell delivery efficacy of the FITC-labeled peptides (9 and 10), both cyclic peptides were incubated for 1h with HeLa cells at different concentrations of 2.5, 5, 7, and 10 μM. […] After assessing the cellular uptake, we probed the controlled cell death or apoptosis in HeLa cells using only 2.5 μM peptides (3 and 5) and the known proteasome inhibitor MG-132 as a positive control. […] (Figure 7E).
To investigate the cellular delivery efficiency of the new cyclic peptide HeLa (CCL-2™) cells were seeded on ibidi poly-L-lysine (PLL) 8 well µ-slides in […] and were allowed to reach […]
~90% confluency over 24h. Cells were washed three times with warm PBS and serum-free DMEM (high glucose) followed by incubation for 1h with warm PBS/serum-free medium containing containing 2.5, 5, and 10 µM of fluorescently labeled cyclic peptides (9 and 10). Cells were then washed three times with warm PBS followed by adding 0.1 mg/ml heparin sulfate in PBS and incubating for 5min. […]

[1] = Au(I)-mediated imine macrocyclisation (JohnPhosAu(MeCN)SbF6 2 equiv, Et4NBr 16 equiv) then in situ NaBH4 reduction to cyclic amine, HPLC isolation; conditions: the molecule shown is the open-chain precursor; 24-membered ring; DMF; 8.0 mM; 37.0 °C; 1.0 h; 2 steps

Row | Structure (SMILES) | cellular uptake (fluorescence in cells) (HeLa cells) | ring closure, yield over several steps [1] [%]
1 | CC1=NCC(=O)N[C@@H](Cc2c[nH]c3ccccc23)C(=O)N[C@@H](Cc2ccccc2)C(=O)N[C@@H](CC(=O)O)C(=O)N[C@@H](CC(=O)O)C(=O)N[C@@H](CC(C)C)C(=O)N[C@@H](Cc2ccc(O)cc2)C(=O)N[C@@H](Cc2c[nH]c3ccccc23)C(=O)N[C@@H](Cc2ccccc2)C(=O)N[C@@H](C(C)C)C(=O)N[C@@H](C)C(=O)N[C@@H](Cc2ccc(O)cc2)C(=O)N(CC(=O)N[C@@H](C)C(=O)N[C@@H](CSC2CC(=O)N(c3ccc4c(c3)C(=O)OC43c4ccc(O)cc4Oc4cc(O)ccc43)C2=O)C(N)=O)C1 (some centres unmarked) [Peptide 10] | significant fluorescence | 
2 | C#CCN(C(=O)CNC(=O)[C@H](C)NC(=O)[C@H](CCCNC(=N)N)NC(=O)[C@H](Cc1ccc(O)cc1)NC(=O)[C@H](CC(C)C)NC(=O)CNC(=O)[C@@H](N)Cc1ccccc1)[C@H](C(N)=O)[C@@H](C)CC [H-Phe-Gly-Leu-Tyr-Arg-Ala-Gly-(N-propargyl)Ile-NH2] |  | 60

Reference: paper PMC8949771, “Gold(I)-Mediated Rapid Cyclization of Propargylated Peptides via Imine Formation” (Journal of the American Chemical Society, 2022)
